We go through three molecules from US20070155673A1, “USE OF BVDU FOR INHIBITING THE GROWTH OF HYPERPROLIFERATIVE CELLS” (Celmed Oncology (USA), Inc., priority 1999, published 2007).

Data set [1] deals with H630 R10. As to the kind of experiment: alamarBlue cytotoxicity assay. The data set is classed as cell-based. To be noted: for IC50: alamarBlue, drug exposure 120 hours, 5-FU resistant colon tumor cell line. The procedure: (§1) alamarBlue cytotoxicity assay Tumor cells growing exponentially were transferred to 384 well flat bottom tissue culture plates. H630 R10 were plated at a density of 500 cells per well and MCF7 TDX at 250 cells/well in 25 μL of complete medium (RPMI 1640+10% fetal bovine serum+antibiotics/antimyotics). After 24 hours (day 0), 25 μL of complete medium containing the compounds (NB1011 or BVdU) over the dose range of 10^−3 to 10^−10 M were added in triplicate. Drug exposure time was 120 hours (day 5), after which growth inhibition was assayed. The redox indicator alamarBlue was added to each well at 10% (v/v). After 1-hour incubation at room temperature, fluorescence was monitored at 536 nm excitation and 595 nm emission. Concentration versus relative fluorescence units (RFU) was plotted, and sigmoid curves were fit using the Hill equation. IC50, indicated by the inflection point of the curve, is the concentration at which growth is inhibited by 50%.
(§2) H630 R10 is a colon cancer tumor cell line selected for resistance to 5-FU, and overexpresses thymidylate synthase protein approximately 20-fold. MCF7 TDX is a breast tumor cell line selected with Tomudex, and overexpresses thymidylate synthase to approximately the same extent.

The subject of data set [2] is MCF7 TDX. As to the kind of experiment: alamarBlue cytotoxicity assay. Type of data set: cell-based. To be noted: for IC50: alamarBlue. As for the experimental part:
as §1, §2

Data set [3] relates to TS HT1080 #12. Nature of the data set: Cyquant and crystal violet cytotoxicity. The data set is classed as cell-based, human. To be noted: for IC50: TS HT1080 #12, tumor - fibrosarcoma, high TS transfectant, 72 hour incubation; for normal/tumor IC50 ratio: normal IC50 = average of CCD18co and Det551. As for the experimental part:
(§3) Cvquant and Crystal Violet Cytotoxicity Exponentially growing cells were transferred at a density of 1.0-4.0×10^3 cells per well to a 96-well tissue culture plate in growth medium (RPMI1640+10% FBS+antibiotics). Cells were allowed to attach for 24 hours in standard culture conditions (37° C., 5% CO2, 95% humidity). Experimental compounds were then applied in duplicate half log serial dilutions. After additional 72 hour incubation, surviving cells were stained with crystal violet (adherent cells) or Cyquant (semi or non—adherent cells). Absorbence or fluorescence, respectively, was monitored. IC50 values were derived from sigmoid curves fit according to the Hill inhibitory Emax model.
Cell transfection. HT1080 cells were grown in RPMI1640 medium supplemented with 10% FBS, and transfected with TS expression vector. 48 hours later, transfected cells were trypsinized and replated in culture medium containing 750 μg/ml G418. After selection with G418 for two weeks, surviving cells were cloned. Clones with different TS levels were selected based on Western blot analysis, and expanded into cell lines. The stable HT1080 cells transfected with pcDNA3.1(−) only were used as control.
(§4) The selectivity of a given antitumor agent can be assessed by comparing the IC50 for a tumor cell line to the IC50 of a normal cell strain growing under the same conditions, determined and Cyquant staining for non-adherent cells, and crystal violet staining for adherent cells. The selectivity is given here as the ratio of normal cell IC50 to tumor cell IC50. In this case, normal cell IC50 is defined as the average of the value for CCD18co and Det551 to allow for direct comparison of the established cancer drug 5-FU with BVdU.

The test system of data set [4] is SW527TDX. As to the kind of experiment: Cyquant and crystal violet cytotoxicity. Type of data set: cell-based. As to conditions: for normal/tumor IC50 ratio: normal IC50 = average of CCD18co and Det551; for IC50: tumor - breast, TDX resistant, high TS, 72 hour incubation. As for the experimental part: as §3, §4
Data set [5] concerns SKBR3 #52. Nature of the data set: Cyquant and crystal violet cytotoxicity. To be noted: for IC50: SKBR3 #52, tumor - breast, high TS transfectant, 72 hour incubation; for normal/tumor IC50 ratio: normal IC50 = average of CCD18co and Det551. Type of data set: cell-based. As for the experimental part: as §3, §4
Data set [6] relates to SW527P. Nature of the data set: Cyquant and crystal violet cytotoxicity. Type of data set: cell-based. To be noted: tumor - breast, parental control, 72 hour incubation. As for the experimental part: as §3, §4
Data set [7] deals with MCF7. As to the kind of experiment: Cyquant and crystal violet cytotoxicity. Type of data set: cell-based. To be noted: for IC50: MCF7, tumor - breast, parental control, 72 hour incubation; for normal/tumor IC50 ratio: normal IC50 = average of CCD18co and Det551. The procedure:
as §3, §4

Data set [8] deals with H630-R10. Nature of the data set: Cyquant and crystal violet cytotoxicity. To be noted: for IC50: H630-R10, tumor - colon, 5-FU resistant, high TS, 72 hour incubation; for normal/tumor IC50 ratio: normal IC50 = average of CCD18co and Det551. The data set is classed as cell-based. The procedure: as §3, §4
Data set [9] relates to MCF7 TDX. As to the kind of experiment: Cyquant and crystal violet cytotoxicity. The data set is classed as cell-based. As to conditions: for normal/tumor IC50 ratio: normal IC50 = average of CCD18co and Det551; for IC50: tumor - breast, TDX resistant, high TS, 72 hour incubation. The procedure: as §3, §4
The test system of data set [10] is CCD18co. As to the kind of experiment: Cyquant and crystal violet cytotoxicity. The data set is classed as cell-based. As to conditions: for IC50: CCD18co, normal colon epithelium, 72 hour incubation. The procedure: as §3, §4
Data set [11] has as its system Det 551. As to the kind of experiment: Cyquant and crystal violet cytotoxicity. To be noted: for IC50: Det 551, normal embryonic skin, 72 hour incubation. The data set is classed as cell-based. As for the experimental part: as §3, §4
Data set [12] deals with SKBR3 V. Nature of the data set: Cyquant and crystal violet cytotoxicity. The data set is classed as cell-based. As to conditions: vector control, low TS, 72 hour incubation. The procedure: as §3, §4
Data set [13] has as its system TKC HT1080 #22. As to the kind of experiment: Sensitivity of thymidine kinase transfected HT1080 cell lines to BVdU. The data set is classed as cell-based. To be noted: Homo sapiens, HT-1080; TKC HT1080 #22, TK protein level 400 units. The text has this:
(§5) Cell lines that overexpress human thymidine kinase (TK) are also more sensitive to BVdU, providing another criterion for identification of tumor susceptibility to BVdU.

Data set [14] concerns PC HT1080. Described as above. Type of data set: cell-based. To be noted: Homo sapiens, HT-1080; PC HT1080, TK protein level 100 units.
Description: as §5

Data set [15] deals with TKC HT1080 #5. The data set is described as above. Type of data set: cell-based. To be noted: Homo sapiens, HT-1080; TKC HT1080 #5, TK protein level 200 units.
Description: as §5

The test system of data set [16] is H630 R10. To be noted: previously shown; cited from earlier work.

`C[C@H](NP(=O)(OC[C@H]1O[C@@H](n2cc(/C=C/Br)c(=O)[nH]c2=O)C[C@@H]1O)Oc1ccccc1)C(=O)O` (stereo partly drawn) [NB1011, reference compound]: the half-inhibitory concentration (IC50) was 57 µM in data set [1] and 0.13 µM in [2] (drug exposure 120 hours, Tomudex resistant breast tumor cell line).

In the case of `O=c1[nH]cc(F)c(=O)[nH]1` [5-FU, reference compound], the half-inhibitory concentration (IC50) in [3] is 3.5 ± 0.2 µM; in [4], 20.4 ± 9.9 µM; in data set [5], 9.1 ± 1.6 µM; in [6], 9.1 ± 1.3 µM; in data set [7] it was 8.8 ± 5.9 µM; in [8], 143 ± 5.9 µM. The IC50 in [9] worked out at 6.7 ± 2 µM; in data set [10] it was 1.4 ± 0.4 µM; in data set [11], 3.1 ± 0.5 µM; in [12] (tumor - breast), 7.4 ± 2.4 µM. For the same molecule, the “normal/tumor IC50 ratio” value was 0.64 in data set [3] (TS HT1080 #12); 0.11 in data set [4]; 0.24 in data set [5] (SKBR3 #52); 0.25 in data set [7] (MCF7); 0.15 in data set [8] (H630-R10); 0.33 in data set [9].

In the case of `O=c1[nH]c(=O)n([C@H]2C[C@H](O)[C@@H](CO)O2)cc1/C=C/Br` [BVdU, (E)-5-(2-bromovinyl)-2′-deoxyuridine], the IC50 was found to be 5.7 ± 1.8 µM in data set [3] (Homo sapiens, HT-1080); 303 µM in data set [1] (Homo sapiens, NCI-H630); 0.005 µM in data set [2] (Homo sapiens, MCF7, Tomudex resistant breast cancer cell line); 0.005 µM in data set [2] (Homo sapiens, MCF7, drug exposure 120 hours, Tomudex resistant breast tumor cell line); 162 µM in [13]; 303 µM in [14]. Besides, the IC50 in data set [15] was 275 µM; in data set [4] it was 6.5 µM; in data set [5] (Homo sapiens, SK-BR-3), 8.3 µM; in data set [6], more than 1000 µM; in [7] (Homo sapiens), 1250 µM; in data set [8], 561 ± 157 µM. For the same molecule, the IC50 is 0.6 ± 0.5 µM in data set [9] (Homo sapiens); 4820 ± 128 µM in data set [10] (Homo sapiens, CCD-18Co); 2190 ± 682 µM in data set [11]; more than 1000 µM in data set [12] (Homo sapiens, SK-BR-3, tumor - breast). Also, the “times the 5-FU normal/tumor ratio” value is 961 times in data set [3] (TS HT1080 #12); 5,000 times in data set [4]; 2,000 times in data set [5] (SKBR3 #52); 42 times in data set [8] (H630-R10); 18,000 times in data set [9]. For the same molecule, the “normal/tumor IC50 ratio” value in [3] (TS HT1080 #12) turned out to be 615; in data set [4], 540; in data set [5] (SKBR3 #52) it was 423; in data set [7] (MCF7) it was 2.8; in data set [8] (H630-R10), 6.3; in data set [9], 5847. Further, the “fold less active than NB1011” value in [1] (H630R10 cells, from IC50) is approximately 6 fold. In [2] (MCF7 TDX cells, from IC50), the “fold more active than NB1011” value is recorded as approximately 25 fold. Besides, the “sensitivity of H630 R10 (in words)” value in [16] is “insensitive”. In addition, the “selectivity relative to 5-FU” value in [7] (MCF7) is listed as “more than ten times as selective as 5-FU”. Further, the “anti-proliferative effect (in words)” value in data set [10] (normal cell strain representing colon, even high concentrations) is “not affected”; in [11] (normal cell strain representing skin, even high concentrations), “not affected”.
